Results from PubChem BioAssay (NCI).
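In this assay, cells in 96-well plates receive the compound at five concentrations for 48 hours. Endpoints are linearly interpolated between the surrounding concentrations. GI50 = concentration required for 50% inhibition of growth. TGI denotes the concentration required for complete inhibition of growth.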

Legend:
Experiment in all cases: DTP human tumour cell line panel, 48 h
CCRF-CEM leukemia = system: CCRF-CEM leukemia
U251 CNS = system: U251 CNS
NCI-H23 lung = system: NCI-H23 lung
SK-OV-3 ovarian = system: SK-OV-3 ovarian
A549 NSCLC = system: A549 NSCLC
SK-MEL-2 melanoma = system: SK-MEL-2 melanoma
SR leukemia = system: SR leukemia
LOX IMVI melanoma = system: LOX IMVI melanoma
MCF7 breast = system: MCF7 breast
PC-3 prostate = system: PC-3 prostate
BT-549 breast = system: BT-549 breast
A498 renal = system: A498 renal
ACHN renal = system: ACHN renal
IGROV1 ovarian = system: IGROV1 ovarian
786-0 renal = system: 786-0 renal
MALME-3M melanoma = system: MALME-3M melanoma
UACC-62 melanoma = system: UACC-62 melanoma
MDA-MB-231 breast = system: MDA-MB-231 breast
SW-620 colon = system: SW-620 colon
NCI/ADR-RES ovarian = system: NCI/ADR-RES ovarian
SF-295 CNS = system: SF-295 CNS
KM12 colon = system: KM12 colon
NCI-H460 lung = system: NCI-H460 lung
SN12C renal = system: SN12C renal
HCT-116 colon = system: HCT-116 colon
OVCAR-5 ovarian = system: OVCAR-5 ovarian
HCT-15 colon = system: HCT-15 colon
SF-539 CNS = system: SF-539 CNS
NCI-H226 lung = system: NCI-H226 lung
RXF 393 renal = system: RXF 393 renal
DU-145 prostate = system: DU-145 prostate
HOP-92 NSCLC = system: HOP-92 NSCLC
K-562 leukemia = system: K-562 leukemia
HL-60(TB) leukemia = system: HL-60(TB) leukemia
TK-10 renal = system: TK-10 renal
RPMI-8226 leukemia = system: RPMI-8226 leukemia
OVCAR-4 ovarian = system: OVCAR-4 ovarian
MOLT-4 leukemia = system: MOLT-4 leukemia
MDA-MB-435 = system: MDA-MB-435
OVCAR-3 ovarian = system: OVCAR-3 ovarian
UACC-257 melanoma = system: UACC-257 melanoma
CAKI-1 renal = system: CAKI-1 renal
SNB-19 CNS = system: SNB-19 CNS
UO-31 renal = system: UO-31 renal
SK-MEL-28 melanoma = system: SK-MEL-28 melanoma
HOP-62 NSCLC = system: HOP-62 NSCLC
EKVX NSCLC = system: EKVX NSCLC
M14 melanoma = system: M14 melanoma
T-47D breast = system: T-47D breast
SNB-75 CNS = system: SNB-75 CNS
OVCAR-8 ovarian = system: OVCAR-8 ovarian
NCI-H522 lung = system: NCI-H522 lung
SK-MEL-5 melanoma = system: SK-MEL-5 melanoma
HS 578T breast = system: HS 578T breast
SF-268 CNS = system: SF-268 CNS
HCC-2998 colon = system: HCC-2998 colon
HT29 colon = system: HT29 colon
COLO 205 colon = system: COLO 205 colon

## Fc1ccc(-c2nc3n(c2-c2ccncc2)CCS3)cc1
CCRF-CEM leukemia
  GI50: > 25 µM
  TGI: > 25 µM
U251 CNS
  GI50: > 25 µM
  TGI: > 25 µM
NCI-H23 lung
  GI50: > 25 µM
  TGI: > 25 µM
SK-OV-3 ovarian
  GI50: > 25 µM
  TGI: > 25 µM
A549 NSCLC
  GI50: > 25 µM
  TGI: > 25 µM
SK-MEL-2 melanoma
  GI50: > 25 µM
  TGI: > 25 µM
SR leukemia
  GI50: > 25 µM
  TGI: > 25 µM
LOX IMVI melanoma
  GI50: > 25 µM
  TGI: > 25 µM
MCF7 breast
  GI50: > 25 µM
  TGI: > 25 µM
PC-3 prostate
  GI50: > 25 µM
  TGI: > 25 µM
BT-549 breast
  GI50: > 25 µM
  TGI: > 25 µM
A498 renal
  GI50: > 25 µM
  TGI: > 25 µM
ACHN renal
  GI50: > 25 µM
  TGI: > 25 µM
IGROV1 ovarian
  GI50: > 25 µM
  TGI: > 25 µM
786-0 renal
  GI50: > 25 µM
  TGI: > 25 µM
MALME-3M melanoma
  GI50: > 25 µM
  TGI: > 25 µM
UACC-62 melanoma
  GI50: > 25 µM
  TGI: > 25 µM
MDA-MB-231 breast
  GI50: > 25 µM
  TGI: > 25 µM
SW-620 colon
  GI50: > 25 µM
  TGI: > 25 µM
NCI/ADR-RES ovarian
  GI50: > 25 µM
  TGI: > 25 µM
SF-295 CNS
  GI50: > 25 µM
  TGI: > 25 µM
KM12 colon
  GI50: > 25 µM
  TGI: > 25 µM
NCI-H460 lung
  GI50: > 25 µM
  TGI: > 25 µM
SN12C renal
  GI50: > 25 µM
  TGI: > 25 µM
HCT-116 colon
  GI50: > 25 µM
  TGI: > 25 µM
OVCAR-5 ovarian
  GI50: > 25 µM
  TGI: > 25 µM
HCT-15 colon
  GI50: > 25 µM
  TGI: > 25 µM
SF-539 CNS
  GI50: > 25 µM
  TGI: > 25 µM
NCI-H226 lung
  GI50: > 16.4 µM
  TGI: > 25 µM
RXF 393 renal
  GI50: > 16.5 µM
  TGI: > 25 µM
DU-145 prostate
  GI50: > 25 µM
  TGI: > 25 µM
HOP-92 NSCLC
  GI50: > 25 µM
  TGI: > 25 µM
K-562 leukemia
  GI50: > 25 µM
  TGI: > 25 µM
HL-60(TB) leukemia
  GI50: > 25 µM
  TGI: > 25 µM
TK-10 renal
  GI50: > 25 µM
  TGI: > 25 µM
RPMI-8226 leukemia
  GI50: > 25 µM
  TGI: > 25 µM
OVCAR-4 ovarian
  GI50: 9.67 µM
  TGI: > 25 µM
MOLT-4 leukemia
  GI50: > 25 µM
  TGI: > 25 µM
MDA-MB-435
  GI50: > 25 µM
  TGI: > 25 µM
OVCAR-3 ovarian
  GI50: > 25 µM
  TGI: > 25 µM
UACC-257 melanoma
  GI50: > 25 µM
  TGI: > 25 µM
CAKI-1 renal
  GI50: > 25 µM
  TGI: > 25 µM
SNB-19 CNS
  GI50: > 25 µM
  TGI: > 25 µM
UO-31 renal
  GI50: 8.26 µM
  TGI: > 25 µM
SK-MEL-28 melanoma
  GI50: > 25 µM
  TGI: > 25 µM
HOP-62 NSCLC
  GI50: > 25 µM
  TGI: > 25 µM
EKVX NSCLC
  GI50: > 25 µM
  TGI: > 25 µM
M14 melanoma
  GI50: > 25 µM
  TGI: > 25 µM
T-47D breast
  GI50: 13.3 µM
  TGI: > 25 µM
SNB-75 CNS
  GI50: > 25 µM
  TGI: > 25 µM
OVCAR-8 ovarian
  GI50: > 25 µM
  TGI: > 25 µM
NCI-H522 lung
  GI50: > 25 µM
  TGI: > 25 µM
SK-MEL-5 melanoma
  GI50: > 18 µM
  TGI: > 25 µM
HS 578T breast
  GI50: > 25 µM
  TGI: > 25 µM
SF-268 CNS
  GI50: > 25 µM
  TGI: > 25 µM
HCC-2998 colon
  GI50: > 25 µM
  TGI: > 25 µM
HT29 colon
  GI50: > 25 µM
  TGI: > 25 µM
COLO 205 colon
  GI50: > 25 µM
  TGI: > 25 µM
